Test results from US20090062251A1, “Novel Compounds 002” (ASTRAZENECA AB, priority 2007, published 2009).

Assays:
[1] = biological target: T1, Human CB1 receptor (hCB1) (Homo sapiens, UniProt P21554); experiment: hCB1 receptor binding (3H-CP55,940 displacement); details: hCB1 membranes, Ki=IC50/(1+[rad]/Kd)
T1 construct: purchased Receptor Biology
Description: hCB1 and hCB2 Receptor Binding
Human CB1 receptor from Receptor Biology (hCB1) or human CB2 receptor from BioSignal (hCB2) membranes are thawed at 37° C., passed 3 times through a 25-gauge blunt-end needle, diluted in the cannabinoid binding buffer (50 mM Tris, 2.5 mM EDTA, 5 mM MgCl2, and 0.5 mg/mL BSA fatty acid free, pH 7.4) and aliquots containing the appropriate amount of protein are distributed in 96-well plates. […] The total and non-specific binding are determined in the absence and presence of 0.2 μM of HU210 respectively. The plates are vortexed and incubated for 60 minutes at room temperature, filtered through Unifilters GF/B (presoaked in 0.1% polyethyleneimine) with the Tomtec or Packard harvester using 3 mL of wash buffer (50 mM Tris, 5 mM MgCl2, 0.5 mg BSA pH 7.0). The filters are dried for 1 hour at 55° C. The radioactivity (cpm) is counted in a TopCount (Packard) after adding 65 μl/well of MS-20 scintillation liquid.
Based on the above assays, the dissociation constant (Ki) for a particular compound of the invention towards a particular receptor is determined using the following equation:
[rad] is a standard or reference radioactive ligand concentration at that moment; and
Kd is the dissociation constant of the radioactive ligand towards the particular receptor.

[2] = biological target: T1, Human CB1 receptor (hCB1); experiment: hCB1 GTPγS binding; assay type: biochemical; details: for EC50: hCB1 membranes, GTPγ35S, 10-point dose-response; for Emax: maximal stimulated binding determined with 10 μM Win 55,212-2
Description: hCB1 and hCB2 GTPγS Binding
Human CB1 receptor from Receptor Biology (hCB1) or human CB2 receptor membranes (BioSignal) are thawed at 37° C., passed 3 times through a 25-gauge blunt-end needle and diluted in the GTPγS binding buffer (50 mM Hepes, 20 mM NaOH, 100 mM NaCl, 1 mM EDTA, 5 mM MgCl2, pH 7.4, 0.1% BSA). […] The basal and maximal stimulated binding is determined in absence and presence of 1 μM (hCB2) or 10 μM (hCB1) Win 55, 212-2 respectively. The membranes are pre-incubated for 5 minutes with 56.25 μM (hCB2) or 112.5 μM (hCB1) GDP prior to distribution in plates (15 μM (hCB2) or 30 μM (hCB1) GDP final). The plates are vortexed and incubated for 60 minutes at room temperature, filtered on Unifilters GF/B (presoaked in water) with the Tomtec or Packard harvester using 3 ml of wash buffer (50 mM Tris, 5 mM MgCl2, 50 mM NaCl, pH 7.0). The filters are dried for 1 hour at 55° C. The radioactivity (cpm) is counted in a TopCount (Packard) after adding 65 μl/well of MS-20 scintillation liquid. Antagonist reversal studies are done in the same way except that (a) an agonist dose-response curve is done in the presence of a constant concentration of antagonist, or (b) an antagonist dose-response curve is done in the presence of a constant concentration of agonist.

T1 sequence (P21554 whole entry): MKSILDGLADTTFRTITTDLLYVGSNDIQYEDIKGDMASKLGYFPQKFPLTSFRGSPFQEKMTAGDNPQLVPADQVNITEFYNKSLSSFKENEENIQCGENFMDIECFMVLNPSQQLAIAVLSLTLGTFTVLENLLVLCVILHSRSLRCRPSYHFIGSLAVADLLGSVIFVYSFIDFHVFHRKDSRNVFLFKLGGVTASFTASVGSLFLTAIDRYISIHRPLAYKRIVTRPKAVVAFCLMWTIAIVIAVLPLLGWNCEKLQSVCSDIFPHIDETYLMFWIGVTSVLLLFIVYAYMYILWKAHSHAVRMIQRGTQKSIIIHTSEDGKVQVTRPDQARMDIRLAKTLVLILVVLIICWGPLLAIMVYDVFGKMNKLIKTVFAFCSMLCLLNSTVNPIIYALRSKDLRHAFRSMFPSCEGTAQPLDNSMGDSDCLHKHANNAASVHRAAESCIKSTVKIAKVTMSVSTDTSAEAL

SMILES	Ki [1] [µM]	EC50 [2] [µM]	Emax [2] [%]
CCS(=O)(=O)n1c2c(c3cc(C(=O)N(C)CC(=O)NC4CC4)ccc31)CC(C1CCOCC1)CC2 (stereo not drawn) [N-(cyclopropylcarbamoylmethyl)-9-ethylsulfonyl-N-methyl-6-(oxan-4-yl)-5,6,7,8-tetrahydrocarbazole-3-carboxamide]	0.0181	0.0188	116
CN(C(=O)c1ccc2c(c1)c1c(n2C)CC[C@@H](C2CCOCC2)C1)[C@H](CO)CCC(=O)NCCF [(R)—N-((S)-5-(2-Fluoroethylamino)-1-hydroxy-5-oxopentan-2-yl)-N,9-dimethyl-3-(tetrahydro-2H-pyran-4-yl)-2,3,4,9-tetrahydro-1H-carbazole-6-carboxamide]	0.026	0.061	118
CN(CC(=O)NC1CC1)C(=O)c1ccc2c(c1)c1c(n2S(C)(=O)=O)CCC(C2CCCCC2)C1 (stereo not drawn) [6-cyclohexyl-N-(cyclopropylcarbamoylmethyl)-N-methyl-9-methylsulfonyl-5,6,7,8-tetrahydrocarbazole-3-carboxamide]	0.0079	0.0313	111
CCS(=O)(=O)n1c2c(c3cc(C(=O)N4CCC(C)CC4)ccc31)CC(C1CCCCC1)CC2 (stereo not drawn) [(6-cyclohexyl-9-ethylsulfonyl-5,6,7,8-tetrahydrocarbazol-3-yl)-(4-methyl-1-piperidyl)methanone]	0.0152	0.02	107
Cn1c2c(c3cc(C(=O)N4CCCC(C(=O)NC5CC5)C4)ccc31)CC(C1CCOCC1)CC2 (stereo not drawn) [N-cyclopropyl-1-[9-methyl-6-(oxan-4-yl)5,6,7,8-tetrahydrocarbazole-3-carbonyl]piperidine-3-carboxamide]	0.0324	0.128	115
CCN(CCCCO)C(=O)c1ccc2c(c1)c1c(n2C)CCC(C2CCOCC2)C1 (stereo not drawn) [N-ethyl-N-(4-hydroxybutyl)-9-methyl-6-(oxan-4-yl)-5,6,7,8-tetrahydrocarbazole-3-carboxamide]	0.0723	0.275	122
CCN(CC(=O)NCCOC)C(=O)c1ccc2c(c1)c1c(n2C)CCC(C2CCOCC2)C1 (stereo not drawn) [N-ethyl-N-(2-methoxyethylcarbamoylmethyl)-9-methyl-6-(oxan-4-yl)-5,6,7,8-tetrahydrocarbazole-3-carboxamide]	0.219	0.457	113
CC1CCN(C(=O)c2ccc3c(c2)c2c(n3S(C)(=O)=O)CCC(C3CCCCC3)C2)CC1 (stereo not drawn) [(6-cyclohexyl-9-methylsulfonyl-5,6,7,8-tetrahydrocarbazol-3-yl)-(4-methyl-1-piperidyl)methanone]	0.0753	0.277	89
CCN(CC(=O)N[C@@H]1CCOC1)C(=O)c1ccc2c(c1)c1c(n2C)CCC(C2CCOCC2)C1 (stereo partly drawn) [N-ethyl-9-methyl-6-(oxan-4-yl)-N-[[(3R)-oxolan-3-yl]carbamoylmethyl]-5,6,7,8-tetrahydrocarbazole-3-carboxamide]	0.218	0.525	127
CCN(CC(=O)NC)C(=O)c1ccc2c(c1)c1c(n2C)CCC(C2CCOCC2)C1 (stereo not drawn) [N-ethyl-9-methyl-N-(methylcarbamoylmethyl)-6-(oxan-4-yl)-5,6,7,8-tetrahydrocarbazole-3-carboxamide]	0.14	0.342	116
CCNC(=O)CCCN(C)C(=O)c1ccc2c(c1)c1c(n2C)CCC(C2CCOCC2)C1 (stereo not drawn) [N-[3-(ethylcarbamoyl)propyl]-N,9-dimethyl-6-(oxan-4-yl)-5,6,7,8-tetrahydrocarbazole-3-carboxamide]	0.0366	0.0635	111
Cn1c2c(c3cc(C(=O)N4CCC(C(=O)NC5CC5)C4)ccc31)CC(C1CCOCC1)CC2 (stereo not drawn) [N-cyclopropyl-1-[9-methyl-6-(oxan-4-yl)5,6,7,8-tetrahydrocarbazole-3-carbonyl]pyrrolidine-3-carboxamide]	0.026	0.0185	121
CCN(CCCC(=O)NCCF)C(=O)c1ccc2c(c1)c1c(n2C)CCC(C2CCOCC2)C1 (stereo not drawn) [N-ethyl-N-[3-(2-fluoroethylcarbamoyl)propyl]-9-methyl-6-(oxan-4-yl)-5,6,7,8-tetrahydrocarbazole-3-carboxamide]	0.0101	0.0092	135
CCN(CC(=O)NC1COC1)C(=O)c1ccc2c(c1)c1c(n2C)CCC(C2CCOCC2)C1 (stereo not drawn) [N-ethyl-9-methyl-6-(oxan-4-yl)-N-(oxetan-3-ylcarbamoylmethyl)-5,6,7,8-tetrahydrocarbazole-3-carboxamide]	0.063	0.128	117
CCC(=O)NC1CCCN(C(=O)c2ccc3c(c2)c2c(n3C)CCC(C3CCOCC3)C2)C1 (stereo not drawn) [N-[1-[9-methyl-6-(oxan-4-yl)5,6,7,8-tetrahydrocarbazole-3-carbonyl]-3-piperidyl]propanamide]	0.0632	0.263	122
CCN(CC(=O)NCCC#N)C(=O)c1ccc2c(c1)c1c(n2S(=O)(=O)CC)CCC(C2CCOCC2)C1 (stereo not drawn) [N-(2-cyanoethylcarbamoylmethyl)-N-ethyl-9-ethylsulfonyl-6-(oxan-4-yl)-5,6,7,8-tetrahydrocarbazole-3-carboxamide]	0.115	0.12	115
C[C@H](C(=O)NCCF)N(C)C(=O)c1ccc2c(c1)c1c(n2C)CCC(C2CCOCC2)C1 (stereo partly drawn) [N-[(1R)-1-(2-fluoroethylcarbamoyl)ethyl]-N,9-dimethyl-6-(oxan-4-yl)-5,6,7,8-tetrahydrocarbazole-3-carboxamide]	0.157	0.353	107
Cn1c2c(c3cc(C(=O)N4CCC[C@H](NC(=O)C5CC5)C4)ccc31)CC(C1CCOCC1)CC2 (stereo partly drawn) [N-[(3S)-1-[9-methyl-6-(oxan-4-yl)5,6,7,8-tetrahydrocarbazole-3-carbonyl]-3-piperidyl]cyclopropanecarboxamide]	0.0434	0.0872	119
CC(C)C(=O)NC1CCCN(C(=O)c2ccc3c(c2)c2c(n3C)CCC(C3CCOCC3)C2)C1 (stereo not drawn) [2-methyl-N-[1-[9-methyl-6-(oxan-4-yl)5,6,7,8-tetrahydrocarbazole-3-carbonyl]-3-piperidyl]propanamide]	0.157	0.401	118
C[C@H](C(=O)NC1CC1)N(C)C(=O)c1ccc2c(c1)c1c(n2C)CCC(C2CCOCC2)C1 (stereo partly drawn) [N-[(1R)-1-(cyclopropylcarbamoyl)ethyl]-N,9-dimethyl-6-(oxan-4-yl)-5,6,7,8-tetrahydrocarbazole-3-carboxamide]	0.0196	0.0296	120
CCN(CC(=O)NCC(F)(F)F)C(=O)c1ccc2c(c1)c1c(n2S(=O)(=O)CC)CCC(C2CCOCC2)C1 (stereo not drawn) [N-ethyl-9-ethylsulfonyl-6-(oxan-4-yl)-N-(2,2,2-trifluoroethylcarbamoylmethyl)-5,6,7,8-tetrahydrocarbazole-3-carboxamide]	0.0251	0.0514	112
CCNC(=O)CN(CC)C(=O)c1ccc2c(c1)c1c(n2CCF)CCC(C2CCOCC2)C1 (stereo not drawn) [N-ethyl-N-(ethylcarbamoylmethyl)-9-(2-fluoroethyl)-6-(oxan-4-yl)-5,6,7,8-tetrahydrocarbazole-3-carboxamide]	0.202	0.438	109
Cn1c2c(c3cc(C(=O)N4CC[C@H](CC(=O)NC5CC5)C4)ccc31)CC(C1CCOCC1)CC2 (stereo partly drawn) [N-cyclopropyl-2-[(3R)-1-[9-methyl-6-(oxan-4-yl)5,6,7,8-tetrahydrocarbazole-3-carbonyl]pyrrolidin-3-yl]acetamide]	0.0355	0.0692	115
CCN(CC(=O)NCCF)C(=O)c1ccc2c(c1)c1c(n2S(=O)(=O)CC)CCC(C2CCOCC2)C1 (stereo not drawn) [N-ethyl-9-ethylsulfonyl-N-(2-fluoroethylcarbamoylmethyl)-6-(oxan-4-yl)-5,6,7,8-tetrahydrocarbazole-3-carboxamide]	0.0129	0.0129	107
